Measured values reported in patent US20260248126A1, “BIOCIDE” (PURGOS APS, priority 2020, published 2026).
“Also recorded” adds a separate entry of the source.

Assays:
Murine norovirus = test: Antiviral activity, ASTM E1052 Kill Time Screen test; type: cell-based; conditions: in 60 seconds; from log reduction 0.34
Poria placenta. FPRL 280 = test: EN 113 test against wood destroying basidiomycetes (impregnated Scots pine sapwood); type: cell-based; conditions: for Corrected mass loss / Mass loss: Mean
[1] = test system: microbial contamination of PVB dispersion (bacteria count); test: PVB dispersion treated with NBDA: microbial contamination by cATP (LuminUltra); type: cell-based; conditions: 25° C.
Acute oral toxicity LD50 = type: in vivo; conditions: worked out from rat LD50 4250 mg/kg
[2] = test system: selected typical species of contaminants; test: Substitution of conventional biocides with NBDA in product recipes: biocidal function (LuminUltra test, 32° C. incubation, Examples 3-6); type: cell-based
From the text: Provision and test of the N-sample can be optional.
Ideally, the T, C and N-samples are provided and stored using methods, protocols, raw materials, conditions and the like, which are very close, and ideally identical, mutatis mutandis. In particular, the samples should be subjected to similar or identical microbial contamination during their provision, and or storage if possible.
Samples, such as test-, control- and/or negative control samples are provided according to Example 3. To assess the effect of the biocide(s), microbial contamination is measured, such as according to Example 6, or other conventional methods known in the art.
In short, samples are exposed to microbial contamination (microbial stress test) e.g., by opening a lid and closing it for a defined period of time, or other operations, mimicking a conventional user situation. Alternatively, samples can be inoculated with defined quantities of microorganisms, such as one or more indicator microorganism.
The samples can be divided into different aliquots, and incubated for selected periods at one or more relevant temperatures, such as e.g., one or more of 4° C., room temperature (RT, usually 20° C., 22° C., or 25° C.), 30° C., 32° C., 37° C., 40° C., and/or 60° C.), simulating e.g., appropriate storage, processing and usage conditions.
Microbial contamination of control, test and/or negative control samples can be determined according to Example 6.
ATP, such as intracellular ATP is measured using a commercially available system, such as provided by LumiUltra®, in particular a method using luminase (Aqua Tools, see details below).
In short, a buffering solution and Luminase enzyme are mixed. After daily ATP standard calibration, an aliquot, such as 1 ml of sample is transferred to an 1 ml extraction tube. After dilution in UltraLute resin, the total ATP (content can be established in the luminescence measuring device. 2) 1 ml sample is dissolved in LumiSolve stabilizing agent. […] For further details, see e.g., Aqua Tools (78300 Poissy, France) Quick reference guide QuenchGone21™ Speciality Test Kit QG21S-50/QG21St-100 2G.

[3] = test system: Canidida albicans ISI 1226; test: Minimal inhibitory concentration (MIC), microtiter plate; type: cell-based, Candida albicans
Protocol: For the tested substance. the stock solution was 10%. Minimum inhibitory concentrations (MICs) are defined as the lowest concentration of an antimicrobial that will inhibit the visible growth of a microorganism after a standardized incubation. In the present study, MIC assay was performed by pipetting robot. The principle is that an indicator microorganism at a defined cell density is cultured with a range of concentrations of the test compound, one concentration pr. well in a row on the microtiter plate. For bacteria and yeasts the minimal inhibitory concentration was detected as no increase of optical density (OD), for moulds microtiter plates were read visually. Each indicator organism is tested in duplicate and the MIC is calculated as the average of the two determinations. The tested concentrations of the antimicrobial substances were 2-fold dilutions from 5%. All indicator organisms (see Table 2.) were pre-cultivated in a suitable growth medium and diluted in the same medium to give a final concentration in the assay of ~1×10^3 cfu/ml. The microtiter plates were incubated under specific incubation conditions (see Table 3). [table]

bacterial count in paint = test: In-can preservation of paint, long-time study (bacterial count over time, FIGS. 2-5); type: cell-based
Protocol: The results shown that 0.5% NBDA as sole active ingredient for in-can preservation are as successful over times up to at least as year as in-can preservation by 0.5% NBDA together with 0.5% hydrogen peroxide. FIGS. 2-4 show graphs visualizing data on long term effectivity as NBDA as an in-can additive for preservation of paint. […] In […] the development in bacterial count over time for the abovementioned additives are carried out at RT, 32° C. and 60° C. respectively. The starting point is a stained sample i.e., paint with an initial high bacteria count. […] The results shown are for the development in bacterial count over time for paint samples containing 0.5% NBDA alone and 0.5% NBDA+0.5% Hydrogen Peroxide.

CCCCN(CCO)CCO [NBDA, N-butyldiethanolamine]
Norovirus eliminated / destroyed (Murine norovirus): 54%
Toxic value, Sol. conc. (Poria placenta. FPRL 280): 0.72-1.01 % w/w
Corrected mass loss (Poria placenta. FPRL 280; Solution conc. 0.36 % w/w): 14.2%
Corrected mass loss (Poria placenta. FPRL 280; Solution conc. 0.72 % w/w): 8.2%
Mass loss (Poria placenta. FPRL 280; Solution conc. 0.72 % w/w): 7.8%
Corrected mass loss (Poria placenta. FPRL 280; Solution conc. 1.01 % w/w): 1.4%
Mass loss (Poria placenta. FPRL 280; Solution conc. 1.01 % w/w): 1.0%
Corrected mass loss (Poria placenta. FPRL 280; Solution conc. 1.43 % w/w): 1.5%
Mass loss (Poria placenta. FPRL 280; Solution conc. 1.43 % w/w): 0.4%
fungicide effect, preventing wood destruction (Poria placenta. FPRL 280; concentrations of 0.36%, 0.51%, 0.72%, 1.01% and 1.43%): effective as a fungicide for preventing wood destruction
pH ([1]; 0.50% NBDA, after 1 month): 9.73
pH ([1]; 0.50% NBDA, after 1 week): 9.65
pH ([1]; 0.50% NBDA, after 3 months): 9.62
pH ([1]; 0.50% NBDA, after 6 months): 9.58
pH ([1]; 0.50% NBDA, after 1 day): 9.77
pH ([1]; 1.00% NBDA, after 1 month): 9.86
pH ([1]; 1.00% NBDA, after 1 week): 9.89
pH ([1]; 1.00% NBDA, after 3 months): 9.93
pH ([1]; 1.00% NBDA, after 6 months): 9.67
pH ([1]; 1.00% NBDA, after 1 day): 10.2
human consummation equivalent to LD50 (Acute oral toxicity LD50): 319 gram pr 75 kg
biocidal effect vs normal biocide package ([2]; Styrene-Butadiene-Rubber (SBR)-emulsion, MIT and/or BIT replaced (Example 16)): comparable and better than the normal biocide package
biocidal effect vs benzalkonium chloride ([2]; algae removing compound, 1-5% (Example 9)): comparable or even surpassing benzalkonium chloride in function
biocidal effect vs benzalkonium chloride ([2]; circulating heat-transfer systems, 1-5% (Example 13)): comparable to benzalkonium chloride
biocidal effect vs normal biocide package ([2]; combination products: dispersions, emulsions, suspensions (Example 19)): comparable and better than the normal biocide package
preservation effect vs food preservatives ([2]; food, comparable amounts (Example 40)): shows compatibility and suitable preservation effect(s)
biocidal effect vs normal biocide package ([2]; hand cleanser (Example 37)): comparable or even better than the normal biocide package
biocidal effect vs conventional biocide ([2]; liquid dishwashing compound, MIT and/or BIT replaced with 0.01-1% (Example 7)): comparable to or even surpassing the conventional biocide
biocidal effect vs benzalkonium chloride ([2]; liquid disinfection compound for pipes, 1-5% (Example 11)): comparable to benzalkonium chloride
biocidal effect vs benzalkonium chloride and glutaraldehyde ([2]; liquid disinfection compound for stables, 1-5% (Example 10)): comparable or even surpassing both benzalkonium chloride and glutaraldehyde in function
biocidal effect vs benzalkonium chloride ([2]; liquid disinfection compound, 1-5% (Example 8)): comparable or even surpassing benzalkonium chloride in function
biocidal effect vs normal biocide package ([2]; moisturizing crème / skin- or face-care product (Example 35)): comparable or even better than the normal biocide package
performance vs MIT/BIT system ([2]; precoat composition containing SBR, 0.5% NBDA (Example 24)): same performance as the origin
biocidal effect vs normal biocide package ([2]; soap (Example 38)): comparable or even better than the normal biocide package
biocidal effect vs normal biocide package ([2]; stabilized suspension, MIT and BIT replaced (Example 18)): comparable and better than the normal biocide package
biocidal effect vs chlorine based solutions ([2]; swimmingpool water (Example 36)): comparable or even better than chlorine based traditional solutions
biocidal effect vs benzoate ([2]; toothpaste, benzoate replaced with similar concentration (Example 34)): comparable or even better than benzoate
biocidal effect vs benzalkonium chloride ([2]; waterborne cooling compound, 1-5% (Example 12)): comparable or surpassing benzalkonium chloride
biocidal effect vs benzalkonium chloride ([2]; watersystems for toilets, washing facilities, 1-5% (Example 14)): comparable to benzalkonium chloride
MIC (%) [3]: 0.63%
long term effectivity, bacterial count over time (bacterial count in paint; initial clean sample (low bacterial count), 0.5% NBDA, FIG. 5): as effective as 0.5% NBDA+0.5% Hydrogen peroxide for preventing bacterial growth in paint samples
long term effectivity, bacterial count over time (bacterial count in paint; initial high count, 0.5% and 1% NBDA, RT, 32° C., 60° C., FIGS. 2-4): consistent long-term results for in-can preservation of paint; also recorded: as effective as NBDA+Hydrogen Peroxide for both NBDA concentrations at all three test temperatures long term; also recorded: highly effective as the sole biocide additive for in-can preservation of paints
long term effectivity, bacterial count over time (bacterial count in paint; initial high count, 0.5% and 1% NBDA, RT, 32° C., 60° C., FIGS. 2-4, listed as N-butyldiethanolamine): no bacterial growth even for sustained periods of time; also recorded: sustained effect after more than a year
